The text below walks through data of patent US20240352022A1, “GROUP OF IMB-C5 SERIES COMPOUNDS HAVING ANTI-CORONAVIRUS ACTIVITY AND APPLICATION THEREOF” (priority 2021, published 2024).

A short description of data set [1]: CCK-8 cytotoxicity assay in Huh7 cells. To be noted: human, Huh7 hepatocellular carcinoma cells, CCK-8, 48 hours, read-out: TC50. Type of data set: cell-based. On the procedure: (§1) In order to determine the possible cytotoxicity of IMB-C5 and IMB-85, the CCK-8 assay was first used to detect the effect of the two compounds at different concentrations on viability of different cells 48 hours after administration.
A general note: Tetrazolium assays rely on reduction of a dye to a coloured formazan, in cell work by metabolically active cells.

Data set [2] relates to HCoV-229E. As to the kind of experiment: dsRNA production during replication of HCoV-229E in Huh7 cells (immunofluorescence assay). The data set is classed as cell-based, Human coronavirus HCoV-229E.
Data set [3] can be described thus: in vitro. To be noted: human.
Data set [4] deals with HCoV-OC43. As to the kind of experiment: time-of-addition experiment, HCoV-OC43 in C3A cells (immunofluorescence assay). The data set is classed as cell-based, Human coronavirus HCoV-OC43. To be noted: 50 μM.
Data set [5] relates to HCoV-229E. As to the kind of experiment: anti-HCoV-229E activity in Huh7.5 cells by cytopathic effect (CPE) assay. The data set is classed as cell-based, Human coronavirus HCoV-229E. To be noted: Human coronavirus 229E, HCoV-229E 100 TCID50 in Huh7.5 cells, about 48 h. A general note: Damage to the host cells serves as the signal in cytopathic effect assays.
Data set [6] concerns HCoV-229E. As to the kind of experiment: mRNA level of HCoV-229E N protein in Huh7 cells (RT-qPCR). Type of data set: cell-based, Human coronavirus HCoV-229E. To be noted: MOI=0.035, three concentrations, 24 h. On the technique in general: Real-time PCR tracks product formation cycle by cycle.
Data set [7] relates to HCoV-OC43. As to the kind of experiment: mRNA level of HCoV-OC43 N protein in C3A cells (RT-qPCR). The data set is classed as cell-based, Human coronavirus HCoV-OC43. To be noted: MOI=0.023, three concentrations, 24 h.
Data set [8] concerns HCoV-229E. As to the kind of experiment: mRNA level of HCoV-229E N protein in Huh7.5 cells (RT-qPCR). Type of data set: cell-based, Human coronavirus HCoV-229E. To be noted: MOI=0.035, three concentrations, 24 h.
For data set [9], the system named is HCoV-OC43. As to the kind of experiment: N protein level of HCoV-OC43 in C3A cells (Western Blotting). Type of data set: cell-based, Human coronavirus HCoV-OC43. To be noted: MOI=0.023, three concentrations, 24 h.
Description: The viral N protein level was determined after 24 h.
The effect of IMB-C5 and IMB-85 on N protein level of coronavirus HCoV-OC43 was determined. C3A cells were infected at a viral load of MOI=0.037, and simultaneously administered with IMB-C5 (10 μM), IMB-85 (10 μM, 2 μ, 0.4 μM and 0.08 μM) and MNP (the positive control, 15 μM). After 24 h, the protein was extracted for Western blotting.
Data set [10] in a line: in vitro. To be noted: African green monkey.
Data set [11] in a line: in vitro. To be noted: human. The source holds these as a separate data set.
Data set [12] concerns HCoV-229E. As to the kind of experiment: anti-HCoV-229E activity in Huh7 cells by cytopathic effect (CPE) assay. To be noted: Human coronavirus 229E, Huh-7, HCoV-229E 100 TCID50 in Huh7 cells, about 48 h. Type of data set: cell-based, Human coronavirus HCoV-229E.
For data set [13] the following is noted: from reference [5]; cited from earlier work.
The nature of data set [14]: CCK-8 cytotoxicity assay in Huh7.5 cells. Type of data set: cell-based. To be noted: human, Huh7.5 hepatocellular carcinoma cells, CCK-8, 48 hours, read-out: TC50. The protocol:
as §1

For orientation: EC50 means the concentration giving half of the maximal effect. `COc1cccc(Cn2c(NCCO)nc3c2c(=O)n(C)c(=O)n3C)c1` [IMB-C5]: the CC50 at 48 h in data set [1] and in [14] was above 200 µM throughout. Moreover, the “dsRNA production during replication of HCoV-229E” value in the data set with HCoV-229E [2] (MOI=0.035, gradient concentrations, 24 h) is “had an inhibitory effect on dsRNA production”; in the data set with HCoV-229E [2] (MOI=17, 24 h), “inhibited dsRNA production”. Moreover, the figures for the CC50 in “in vitro [3]”, in the data set “in vitro [10]” and in the data set “in vitro [11]” were above 139 µM, 493 µM and above 139 µM, respectively. Besides, the “antiviral effect, time of addition” value in the data set with HCoV-OC43 [4] (HCoV-OC43 MOI=0.28, administered 1 h to 4 h after infection) was “better antiviral effect”; with HCoV-OC43 [4] (HCoV-OC43 MOI=0.28, administered 6 h or more after infection), “greatly diminished antiviral effect”; in the data set on HCoV-OC43 [4] (HCoV-OC43 MOI=0.28, administered at the time of virus infection), “most significant inhibitory effect on virus”. Besides, the EC50 in the data set with HCoV-229E [5] came out at 26.8 µM; in the data set on HCoV-229E [12], 6.57 µM. For the same compound, the “mRNA level of HCoV-229E N protein” value with HCoV-229E [6] is “decreased mRNA level of HCoV-229E N protein in both Huh7 and Huh7.5 cells in a dose-dependent manner”; with HCoV-229E [8], “decreased mRNA level of HCoV-229E N protein in both Huh7 and Huh7.5 cells in a dose-dependent manner”. Moreover, the “mRNA level of HCoV-OC43 N protein” value with HCoV-OC43 [7] was “decreased mRNA level of HCoV-OC43 N protein in C3A cells in a dose-dependent manner”. In addition, the “N protein level of HCoV-OC43” value in the data set on HCoV-OC43 [9] is “inhibited the expression of the viral N protein in a dose-dependent manner”. The “effect on blood lipids and atherosclerotic plaque formation” value in data set [13] is “good effect on lowering blood lipids and inhibiting atherosclerotic plaque formation”.
